# In patent US9757428B2, “Designed peptides for tight junction barrier modulation” (University of Rochester, priority 2013, dated 2017):
# Where no end group is shown, it is not given here.
# Legend:
# [1] = tested on: 16HBE TJs; test: Transepithelial electrical resistance (TER) of 16HBE tight junction barrier, peptides applied apically; type: cell-based, Human; details: for effect of unrelated peptides on TER: 2-12 μM; for drop in TER: 2.4 μM peptide; for recovery of barrier function (TER) after peptide removal: 0.024 to 12 μM, washout and further 24 h incubation; for barrier disruption by labeled peptides, measured by decreased TER: representative experiment (n=2)
# Method: Before use, peptide fibrils were prepared in sterile, filtered phosphate buffered saline containing 0.12% Pluronic F-127® by sonication at 55° C. for 20 minutes. Peptide concentrations were determined by BCA assay (Pierce). 20× peptide stocks were prepared in 0.12% pluronic F-127/PBS, then diluted 20× into phosphate buffer, PBS or DMEM containing 1% heat-inactivated fetal bovine serum and incubated at 37° C. for 18-24 hours before cell exposure or biophysical analysis, maintaining a constant surfactant concentration (0.006% Pluoronic® F127) for vehicle and peptide samples.
# (§1) Human bronchial epithelial cells (16HBE) were grown on collagen-coated polystyrene in DMEM containing 10% heat inactivated fetal bovine serum, 10 mM HEPES, penicillin, streptomycin, and amphotericin with fresh media every 2-3 days. Cells were plated at the indicated density and grown for the indicated period. Peptides were diluted 20× into DMEM (Gibco #31053 containing 2 mM L-glutamine but lacking phenol red) containing 1% heat-inactivated fetal bovine serum and incubated at 37° C. for 18 hours before exposure. Pluronic F-127 concentrations (0.006% in cell culture media) were consistent between vehicle controls and peptide-containing samples. Cells were acclimated to the same media for 18 hours before peptide exposure.
# (§2) For transepithelial electrical resistance (TER) and permeability experiments, the results of which are shown in FIGS. 4A-4B, respectively, cells were plated at a density of 75,000 per 0.33 cm^2 transwell (Corning TW, […], polyester) and grown for 5-6 days before acclimation/peptide exposure. TER measurements were taken with chopstick electrodes using a World Precision Instruments voltohmeter, and are expressed as the measured (cellular resistance—resistance of a TW insert with no cells)/surface area of the TW insert. TER was measured before peptide exposure (time=0) and at the indicated time points thereafter. After the 24 hour measurement, a control TW was lysed with 1% Triton X-100. For permeability flux assay, 1/10 volume of 0.2% sodium fluorescein or a mixture of 40 kD FITC-dextran (600 μg/mL final apical concentration) and Alexafluor®-568 labeled Synagis monoclonal antibody was added to the apical chamber and cells were incubated at 37° C. for 30 minutes or 18 hours. Synagis monoclonal antibody was labeled with Alexafluor®-568-succinimidyl ester according to the manufacturer's instructions, unreacted fluorophor removed using centrifugal filtration, and labeled antibody resuspended in PBS containing FITC-labeled 40 kD dextran. Fluorescence in the basolateral media was read in a Tecan M1000 fluorescence plate reader using Greiner μ-clear bottom 384-well plates (λex=494 nm and λem=512 nm for fluorescein and FITC-dextran and λex=578 nm and λem=605 nm for Alexafluor®-568 using a 10 nm slit width). Error is presented as the standard error of the mean, and significance relative to the vehicle control indicated where P<0.05 using a two-tailed t-test. For TER and fluorescein permeability experiments, n=8. For barrier recovery after peptide washout and FD-40 and Alexafluor®-labeled monoclonal antibody (“AF-mAb”) permeability, n=4.
# Human bronchial epithelial cells (16HBE) were used to model TJ barrier function. 16HBE cells develop a TJ barrier (transepithelial electrical resistance, TER=800-1500 Ω*cm^2 in 10% heat-inactivated calf serum) that persists for 14 days. 16HBE cells serve as a more robust epithelial TJ barrier model than primary human keratinocytes, which achieve varying degrees of terminal differentiation (e.g. TJ barrier function) and this declines within 24 hours. In the low serum media used for peptide exposure, 16HBE cells achieved 350-500 Ω*cm^2 TER which was stable for 3-4 days. Cell surface expression of Cldn1, Cldn4, Ocln, and ZO-1 were consistently observed by immunofluorescence staining (FIGS. 2A-2B).
# [2] = for comparison; cited from earlier work
# [3] = tested on: 16HBE cells; test: WST1 cytotoxicity assay in 16HBE cells; type: cell-based, Human; details: for WST1 metabolism (cytotoxicity) of equilibrated peptides: 16HBE sub-confluent, 0.024-12 μM, 1, 4, 12 or 24 hour exposure; for concentration of freshly diluted peptide at which cytotoxicity was observed (WST1): 16HBE, stocks diluted and added without incubation, 12 h exposure
# Method: For cytotoxicity measurements, cells were plated with a density of 7,500 per well in a 96-well plate and grown for one day before acclimation in DMEM containing 1% heat-inactivated fetal bovine serum. Cells were exposed to vehicle or peptide for 4, 12 or 24 hours. Control cells were lysed with 1% Triton X-100 for 15 minutes as a negative control. 10× WST1 stock (Clontech) was added to each well, and cells incubated for 12 minutes at 37° C. Media was removed and WST1 absorbance immediately read on a Perkin Elmer UV/Vis plate reader (WST1 A450−background A620). Error is presented as the standard error of the mean, and significance relative to the untreated control indicated (P<0.05). For cytotoxicity experiments, n=4. Representative data is presented.
# [4] = tested on: 16HBE TJs; test: Permeability flux assay (sodium fluorescein, FITC-dextran FD-40, labeled Synagis mAb) across 16HBE cultures; type: cell-based, Human; details: for increase in FITC-dextran 40 kDa (FD-40) permeability / increase in fluorescein (0.4 kDa) permeability: 24 hours exposure, relative to vehicle
# Method: as §1, §2
# [5] = tested on: Cldn1 and Ocln localization in 16HBE cultures; test: Immunofluorescence of TJ proteins (Cldn1, Ocln) and labeled peptides in 16HBE cultures; type: cell-based, Human; details: for Cldn1 and Ocln localization: 12 hours after exposure; for co-localization of labeled peptide with endogenous Cldn1: 2.4 μM, 4 hours exposure
# Method: For immunohistochemical labeling, cells were plated at a density of 1.2×10^5 cells per 1.2 cm^2 coverslip in a 12-well plate and cultured in DMEM containing 10% heat-inactivated fetal bovine serum for 4-5 days. One day before peptide exposure, media was changed to DMEM/1% serum. Cells were exposed to peptide for 4 or 12 hours at 37° C. Cover slips were washed three times with PBS containing calcium (Gibco), fixed in cold methanol and blocked with 1% bovine serum albumin before staining Fluorophor was conjugated to propargyl-glycine labeled peptides using a ClickIt EdU kit according to the manufacturer's instructions (omitting cell exposure to EdU). For immunofluorescent staining, cells were incubated for one hour with primary antibodies (1:500 polyclonal anti-claudin 1 antibody and 1:400 monoclonal anti-occludin), washed with PBS and stained with Alexafluor®-488 anti-rabbit and Alexafluor®-568 anti-mouse secondary antibodies (1:1000). […] Coverslips were mounted in Vectastain containing DAPI and imaged on an Olympus BX60 fluorescence microscope. Cldn1 and Ocln images were taken using SPOT software with no further digital manipulation.
# [6] = tested on: influenza hemagglutinin (HA); test: Intranasal immunization with influenza hemagglutinin (HA); details: mice; for serum antibody titers to HA: day 18, 28 and 35; for HA-specific antibodies (IgG and IgA) in bronchial lavage: day 48
# Method: Immunization experiments with influenza hemagglutinin were carried out as follows. Mice (4 mice per group) were treated in the nasal cavity with vehicle alone (0.006% Pluronic F127 in saline), vehicle plus influenza hemagglutinin (HA), or vehicle plus HA plus a permeabilizing agent (peptides 1A or 2A, or semen-derived enhancer of virus infection (SEVI)). Antibody titers to HA in serum were assessed at day 18, 28, and 35 after treatment, and HA-specific IgG and IgA were determined in bronchial lavage at day 48 post treatment.
# [7] = tested on: nasal cavity; test: Luciferase permeability experiment in mouse nasal cavity; type: in vivo; details: mice, intranasal peptide, luciferase applied after 12 or 24 hours
# Method: Luciferase permeability experiments were carried out as follows. […] After 12 or 24 hours, a solution of 10 micrograms luciferase was applied. Mice were then imaged at various time points to determine the amount of luciferase remaining in the nasal cavity.
# [8] = tested on: Caco-2, HEK-293, and rat perineural TJ barriers; details: Caco-2, HEK-293, rat perineural in vivo; cited from earlier work
# [9] = tested on: T84 (transplantable human carcinoma) cells; details: cited from earlier work
substance,measurement,setting,value
Aβ40: unrelated peptide tested in the same concentration range [reference compound],effect of unrelated peptides on TER,[1]; 16HBE,did not decrease TER
Aβ42: Amyloid Beta-Peptide 1-42 [reference compound],critical concentration (Cr),[2],about 1 μM
same,TJ disruption,[1]; 2.4 μM,"disrupt TJs, but to a lesser extent than peptides 1a and 2a"
"FKFEFKFE-NH2 [(FKFE)2, unrelated peptide tested in the same concentration range, reference compound]",effect of unrelated peptides on TER,[1]; 16HBE,did not decrease TER
H-SILTGVSTLDQSLKQLSNFSQAVSTQSSR-NH2 [Peptide 2a],WST1 metabolism (cytotoxicity) of equilibrated peptides,[3],No alterations in WST1 metabolism
same,concentration of freshly diluted peptide at which cytotoxicity was observed (WST1),[3],200 nM
same,"enhancement of labeled therapeutic antibody (Synagis, 168 kD) penetration",[4]; 2.4 μM peptide,4.9±0.4 fold
same,increase in FITC-dextran 40 kDa (FD-40) permeability,[4]; 2.4 μM peptide,25.3±1.6 fold
same,increase in fluorescein (0.4 kDa) permeability,[4]; 2.4 μM peptide,5.6±0.4 fold
same,"enhancement of labeled therapeutic antibody (Synagis, 168 kD) penetration",[4]; 12 μM peptide,5.6±0.9 fold
same,increase in FITC-dextran 40 kDa (FD-40) permeability,[4]; 12 μM peptide,30.5±3.0 fold
same,increase in fluorescein (0.4 kDa) permeability,[4]; 12 μM peptide,16.4±2.2 fold
same,Cldn1 and Ocln localization,[5],disturbed
same,serum antibody titers to HA,[6],trend of enhancement
same,HA-specific antibodies (IgG and IgA) in bronchial lavage,[6],trend of enhancement
same,drop in TER,"[1]; 16HBE, 24 hours",80±2.4%
same,decrease in TER,"[1]; 16HBE, 12 μM peptide, 24 hours",92±1.6%
same,recovery of barrier function (TER) after peptide removal,[1]; 16HBE,barrier function recovers
H-SSVSQSTGQIQSKVFDSLLNLSSTLQATR-NH2 [Peptide 1a],WST1 metabolism (cytotoxicity) of equilibrated peptides,[3],No alterations in WST1 metabolism
same,concentration of freshly diluted peptide at which cytotoxicity was observed (WST1),[3],1200 nM
same,luciferase lost from the nasal cavity,[7],trend of higher amounts of luciferase lost from the nasal cavity
same,"enhancement of labeled therapeutic antibody (Synagis, 168 kD) penetration",[4]; 2.4 μM peptide,2.5±0.2 fold
same,increase in FITC-dextran 40 kDa (FD-40) permeability,[4]; 2.4 μM peptide,11.2±0.9 fold
same,increase in fluorescein (0.4 kDa) permeability,[4]; 2.4 μM peptide,4.1±0.9 fold
same,"enhancement of labeled therapeutic antibody (Synagis, 168 kD) penetration",[4]; 12 μM peptide,3.2±0.4 fold
same,increase in FITC-dextran 40 kDa (FD-40) permeability,[4]; 12 μM peptide,16.8±1.9 fold
same,increase in fluorescein (0.4 kDa) permeability,[4]; 12 μM peptide,6.7±1.3 fold
same,Cldn1 and Ocln localization,[5],disturbed
same,serum antibody titers to HA,[6],trend of enhancement
same,HA-specific antibodies (IgG and IgA) in bronchial lavage,[6],trend of enhancement
same,drop in TER,"[1]; 16HBE, 24 hours",65.9±6.9%
same,time to statistically significant (P<0.05) decrease in TER,"[1]; 16HBE, 12 μM peptide",≤ 8 h
same,recovery of barrier function (TER) after peptide removal,[1]; 16HBE,barrier function recovers
same,lowest concentration giving a statistically significant (P<0.05) decrease in TER,"[1]; 16HBE, by 24 hours",240 nM
"Rat Cldn1 (53-81, C54,64S) peptide: rat claudin-1 peptide with Cys to Ser, of Zwanziger et al. (SSVSQSTGQIQSKVFDSLLNLNSTLQATR; UniProt P56745 53-81, looked up, variant C54S C64S)",concentration disrupting TJ barriers,[8],200 to 300 µM
"SILTGVSTLDQSLKQLSNFSQAVSTQSSR [Peptide 2b, labeled scrambled peptide 2 with N-terminal biotin-N-propargyl glycine tag]",co-localization of labeled peptide with endogenous Cldn1,[5],co-localize with endogenous Cldn1
same,"barrier disruption by labeled peptides, measured by decreased TER",[1]; 16HBE,cause disruption of barrier
"SSVSQSTGQIQSKVFDSLLNLSSTLQATR [Peptide 1b, labeled peptide 1 with N-terminal biotin-N-propargyl glycine tag]",co-localization of labeled peptide with endogenous Cldn1,[5],co-localize with endogenous Cldn1
same,"barrier disruption by labeled peptides, measured by decreased TER",[1]; 16HBE,cause disruption of barrier
"rat Cldn1 (53-80) peptide: rat claudin-1 extracellular loop peptide of Mrsny et al. (SCVSQSTGQIQCKVFDSLLNLNSTLQAT; UniProt P56745 53-80, looked up, fragment)",concentration able to disrupt intact TJs,[9],200 µM
same,concentration shown to inhibit calcium-induced TJ formation,[9],25 µM
